The values that follow come from ChEMBL document CHEMBL5291721, “A preclinical secondary pharmacology resource illuminates target-adverse drug reaction associations of marketed drugs” (Nat Commun, 2023).

For experiment [1], the target named is Beta-2 adrenergic receptor (Homo sapiens, UniProt P07550).
For experiment [2], the target named is Voltage-dependent L-type calcium channel subunit alpha-1C (Rattus norvegicus, UniProt P22002). The format is functional.
In experiment [3] the target is T1, Muscarinic acetylcholine receptor M2 (Homo sapiens, UniProt P08172).
T1 sequence (P08172 whole entry): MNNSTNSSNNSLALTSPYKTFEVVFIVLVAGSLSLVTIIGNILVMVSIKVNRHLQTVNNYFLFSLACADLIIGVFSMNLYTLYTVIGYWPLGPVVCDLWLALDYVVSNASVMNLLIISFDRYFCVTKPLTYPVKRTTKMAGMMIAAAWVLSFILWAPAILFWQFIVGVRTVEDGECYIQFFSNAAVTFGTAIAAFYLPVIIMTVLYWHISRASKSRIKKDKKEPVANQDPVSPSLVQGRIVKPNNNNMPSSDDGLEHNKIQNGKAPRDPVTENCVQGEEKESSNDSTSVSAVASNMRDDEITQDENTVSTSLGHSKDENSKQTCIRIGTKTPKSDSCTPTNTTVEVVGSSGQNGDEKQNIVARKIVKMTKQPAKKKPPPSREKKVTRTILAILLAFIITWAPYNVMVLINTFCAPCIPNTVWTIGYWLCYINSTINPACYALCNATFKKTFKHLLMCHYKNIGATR
Format: functional, cell-based.

The target of experiment [4] is T1, Muscarinic acetylcholine receptor M2. Format: functional, cell-based. The source holds these as a separate data set.
In experiment [5] the target is Gamma-aminobutyric acid receptor subunit alpha-1 (Rattus norvegicus, UniProt P62813).
Sequence of Gamma-aminobutyric acid receptor subunit alpha-1 (P62813 whole entry): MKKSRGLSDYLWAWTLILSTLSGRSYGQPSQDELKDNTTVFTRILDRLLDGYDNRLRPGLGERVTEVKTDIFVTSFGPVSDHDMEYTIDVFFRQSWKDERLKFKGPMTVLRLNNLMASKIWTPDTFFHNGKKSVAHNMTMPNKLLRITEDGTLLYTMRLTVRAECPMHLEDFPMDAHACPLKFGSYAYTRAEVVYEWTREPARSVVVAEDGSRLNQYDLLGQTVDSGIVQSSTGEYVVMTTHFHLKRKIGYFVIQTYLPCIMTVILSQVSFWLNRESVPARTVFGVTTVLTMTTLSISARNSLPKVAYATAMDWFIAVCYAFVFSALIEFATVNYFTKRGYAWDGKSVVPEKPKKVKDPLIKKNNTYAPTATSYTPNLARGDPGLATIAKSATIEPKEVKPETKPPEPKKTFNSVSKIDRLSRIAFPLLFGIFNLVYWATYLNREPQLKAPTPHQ
The target in experiment [6] is 5-hydroxytryptamine receptor 2B (Homo sapiens, UniProt P41595). Format: functional, cell-based.
Sequence of 5-hydroxytryptamine receptor 2B (P41595 whole entry): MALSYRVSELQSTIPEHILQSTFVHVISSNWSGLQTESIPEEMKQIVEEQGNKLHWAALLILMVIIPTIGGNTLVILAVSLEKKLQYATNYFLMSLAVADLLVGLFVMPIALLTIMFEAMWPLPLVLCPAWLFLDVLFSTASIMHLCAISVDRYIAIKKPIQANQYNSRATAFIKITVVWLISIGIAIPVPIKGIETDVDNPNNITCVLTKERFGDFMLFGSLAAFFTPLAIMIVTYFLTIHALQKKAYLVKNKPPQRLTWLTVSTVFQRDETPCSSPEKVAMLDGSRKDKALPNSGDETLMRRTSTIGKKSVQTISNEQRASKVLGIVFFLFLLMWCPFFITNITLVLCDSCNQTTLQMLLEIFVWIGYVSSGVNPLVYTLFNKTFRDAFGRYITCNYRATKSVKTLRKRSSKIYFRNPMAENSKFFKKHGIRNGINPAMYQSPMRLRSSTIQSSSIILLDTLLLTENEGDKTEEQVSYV
In experiment [7] the target is T2, 5-hydroxytryptamine receptor 2C (Homo sapiens, UniProt P28335).
T2 sequence (P28335 whole entry): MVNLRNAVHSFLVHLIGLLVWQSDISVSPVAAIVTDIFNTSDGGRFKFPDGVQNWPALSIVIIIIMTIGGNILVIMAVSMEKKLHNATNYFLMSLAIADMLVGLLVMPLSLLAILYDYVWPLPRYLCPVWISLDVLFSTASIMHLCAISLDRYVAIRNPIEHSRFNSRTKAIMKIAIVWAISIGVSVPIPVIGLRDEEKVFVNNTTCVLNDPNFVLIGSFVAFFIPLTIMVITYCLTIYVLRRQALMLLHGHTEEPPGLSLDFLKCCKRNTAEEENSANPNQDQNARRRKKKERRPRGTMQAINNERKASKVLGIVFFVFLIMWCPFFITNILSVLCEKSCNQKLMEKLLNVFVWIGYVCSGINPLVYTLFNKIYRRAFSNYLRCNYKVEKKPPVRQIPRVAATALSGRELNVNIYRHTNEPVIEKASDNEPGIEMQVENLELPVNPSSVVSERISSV

The target of experiment [8] is Delta-type opioid receptor (Homo sapiens, UniProt P41143).
The target in experiment [9] is 3',5'-cyclic-AMP phosphodiesterase 4D (Homo sapiens, UniProt Q08499). The format is functional.
Sequence of 3',5'-cyclic-AMP phosphodiesterase 4D (Q08499 whole entry): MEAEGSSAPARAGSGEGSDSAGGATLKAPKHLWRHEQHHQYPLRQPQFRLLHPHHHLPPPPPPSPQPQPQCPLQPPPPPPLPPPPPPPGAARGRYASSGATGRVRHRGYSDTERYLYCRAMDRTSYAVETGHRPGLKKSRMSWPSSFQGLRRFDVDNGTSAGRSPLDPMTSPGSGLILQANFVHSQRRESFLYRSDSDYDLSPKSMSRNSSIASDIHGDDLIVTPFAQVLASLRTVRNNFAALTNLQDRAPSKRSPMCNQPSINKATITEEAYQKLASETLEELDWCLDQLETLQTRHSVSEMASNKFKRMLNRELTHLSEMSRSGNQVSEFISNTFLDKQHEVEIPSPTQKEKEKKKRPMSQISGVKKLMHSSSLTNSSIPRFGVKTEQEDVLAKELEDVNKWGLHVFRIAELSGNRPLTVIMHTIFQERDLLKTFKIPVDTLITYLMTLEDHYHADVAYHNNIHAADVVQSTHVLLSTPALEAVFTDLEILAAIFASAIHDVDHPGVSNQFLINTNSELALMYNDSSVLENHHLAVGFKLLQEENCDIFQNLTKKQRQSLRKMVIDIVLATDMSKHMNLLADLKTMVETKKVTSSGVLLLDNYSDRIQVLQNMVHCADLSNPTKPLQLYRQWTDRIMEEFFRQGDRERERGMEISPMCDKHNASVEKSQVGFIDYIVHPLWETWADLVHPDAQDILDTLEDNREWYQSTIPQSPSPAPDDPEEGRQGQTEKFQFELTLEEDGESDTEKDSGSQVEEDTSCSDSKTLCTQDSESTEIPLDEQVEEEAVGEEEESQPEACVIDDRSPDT
For experiment [10], the target named is T3, Progesterone receptor (Homo sapiens, UniProt P06401).
T3 sequence (P06401 whole entry): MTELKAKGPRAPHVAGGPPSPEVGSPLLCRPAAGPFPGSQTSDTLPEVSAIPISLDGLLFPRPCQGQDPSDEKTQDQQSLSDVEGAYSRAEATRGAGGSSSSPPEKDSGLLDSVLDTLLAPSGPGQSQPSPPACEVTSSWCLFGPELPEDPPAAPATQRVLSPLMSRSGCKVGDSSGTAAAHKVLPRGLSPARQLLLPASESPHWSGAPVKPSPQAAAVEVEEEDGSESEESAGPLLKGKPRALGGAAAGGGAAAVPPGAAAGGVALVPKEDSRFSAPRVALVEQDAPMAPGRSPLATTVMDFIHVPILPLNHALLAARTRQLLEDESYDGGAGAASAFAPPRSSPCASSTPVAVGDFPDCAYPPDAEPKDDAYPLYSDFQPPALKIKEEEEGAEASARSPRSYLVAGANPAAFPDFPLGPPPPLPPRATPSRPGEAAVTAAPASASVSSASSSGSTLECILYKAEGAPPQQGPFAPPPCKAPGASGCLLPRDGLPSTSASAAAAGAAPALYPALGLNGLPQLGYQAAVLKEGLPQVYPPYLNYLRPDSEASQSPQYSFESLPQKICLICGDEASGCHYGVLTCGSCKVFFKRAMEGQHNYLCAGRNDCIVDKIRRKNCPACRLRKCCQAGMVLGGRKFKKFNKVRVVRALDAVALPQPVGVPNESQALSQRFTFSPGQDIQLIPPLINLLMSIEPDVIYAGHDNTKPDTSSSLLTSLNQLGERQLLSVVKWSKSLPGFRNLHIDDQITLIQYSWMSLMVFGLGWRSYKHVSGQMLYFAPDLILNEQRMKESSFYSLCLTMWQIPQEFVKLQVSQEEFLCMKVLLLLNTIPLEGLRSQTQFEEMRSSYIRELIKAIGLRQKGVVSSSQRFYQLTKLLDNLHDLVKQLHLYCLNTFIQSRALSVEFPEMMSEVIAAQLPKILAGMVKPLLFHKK
Format: functional.

The target of experiment [11] is T4, Prostaglandin G/H synthase 1 (Rattus norvegicus, UniProt Q63921).
T4 sequence (Q63921 whole entry): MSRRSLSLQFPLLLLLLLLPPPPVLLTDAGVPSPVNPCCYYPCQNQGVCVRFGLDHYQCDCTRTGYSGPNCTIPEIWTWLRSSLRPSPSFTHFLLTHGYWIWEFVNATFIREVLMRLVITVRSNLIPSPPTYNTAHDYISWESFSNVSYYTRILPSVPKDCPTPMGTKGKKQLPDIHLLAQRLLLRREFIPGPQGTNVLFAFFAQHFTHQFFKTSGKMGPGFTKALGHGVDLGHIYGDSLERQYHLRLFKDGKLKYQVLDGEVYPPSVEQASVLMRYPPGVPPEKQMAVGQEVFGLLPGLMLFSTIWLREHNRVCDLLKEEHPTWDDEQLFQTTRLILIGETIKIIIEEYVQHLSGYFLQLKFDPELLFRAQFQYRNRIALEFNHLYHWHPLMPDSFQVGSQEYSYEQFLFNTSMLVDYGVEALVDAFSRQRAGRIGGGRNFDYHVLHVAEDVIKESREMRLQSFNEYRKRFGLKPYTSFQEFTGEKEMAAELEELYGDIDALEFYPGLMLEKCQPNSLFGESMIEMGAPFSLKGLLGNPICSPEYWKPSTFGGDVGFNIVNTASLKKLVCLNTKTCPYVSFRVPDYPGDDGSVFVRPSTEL
Format: functional.

In experiment [12] the target is Sodium-dependent noradrenaline transporter (Homo sapiens, UniProt P23975).
Sequence of Sodium-dependent noradrenaline transporter (P23975 whole entry): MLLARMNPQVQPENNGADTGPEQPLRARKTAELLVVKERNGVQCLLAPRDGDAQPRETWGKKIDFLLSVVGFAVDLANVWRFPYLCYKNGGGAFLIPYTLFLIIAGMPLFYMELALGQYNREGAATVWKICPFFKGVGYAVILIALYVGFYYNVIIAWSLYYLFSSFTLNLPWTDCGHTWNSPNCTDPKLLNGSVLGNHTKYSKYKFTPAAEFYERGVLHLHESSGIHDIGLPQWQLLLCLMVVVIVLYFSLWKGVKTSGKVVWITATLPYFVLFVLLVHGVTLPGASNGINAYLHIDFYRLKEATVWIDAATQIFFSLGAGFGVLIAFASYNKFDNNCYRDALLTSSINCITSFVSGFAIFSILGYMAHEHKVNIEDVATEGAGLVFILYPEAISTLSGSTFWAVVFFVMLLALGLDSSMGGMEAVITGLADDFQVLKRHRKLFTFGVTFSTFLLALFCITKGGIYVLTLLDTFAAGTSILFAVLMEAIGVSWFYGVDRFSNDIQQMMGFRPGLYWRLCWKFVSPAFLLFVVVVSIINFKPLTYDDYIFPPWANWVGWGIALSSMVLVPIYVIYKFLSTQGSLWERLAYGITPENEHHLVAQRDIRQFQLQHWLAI

As usually defined, the AC50 is the midpoint of the concentration-response curve, whichever way the signal moves.
Note: assay procedure not described here.

Sequence of Beta-2 adrenergic receptor (P07550 whole entry): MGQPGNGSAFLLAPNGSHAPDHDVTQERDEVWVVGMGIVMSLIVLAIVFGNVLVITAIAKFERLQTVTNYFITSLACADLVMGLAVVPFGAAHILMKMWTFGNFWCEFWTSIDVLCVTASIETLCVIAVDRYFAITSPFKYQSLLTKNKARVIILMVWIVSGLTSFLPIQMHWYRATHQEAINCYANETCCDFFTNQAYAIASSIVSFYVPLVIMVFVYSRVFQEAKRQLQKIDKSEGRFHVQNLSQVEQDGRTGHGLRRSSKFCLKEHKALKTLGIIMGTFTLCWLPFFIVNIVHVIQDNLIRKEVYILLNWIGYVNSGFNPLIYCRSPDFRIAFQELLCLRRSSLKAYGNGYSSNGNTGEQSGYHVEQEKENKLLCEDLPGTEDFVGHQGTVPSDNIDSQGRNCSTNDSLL
Sequence of Voltage-dependent L-type calcium channel subunit alpha-1C (P22002 whole entry): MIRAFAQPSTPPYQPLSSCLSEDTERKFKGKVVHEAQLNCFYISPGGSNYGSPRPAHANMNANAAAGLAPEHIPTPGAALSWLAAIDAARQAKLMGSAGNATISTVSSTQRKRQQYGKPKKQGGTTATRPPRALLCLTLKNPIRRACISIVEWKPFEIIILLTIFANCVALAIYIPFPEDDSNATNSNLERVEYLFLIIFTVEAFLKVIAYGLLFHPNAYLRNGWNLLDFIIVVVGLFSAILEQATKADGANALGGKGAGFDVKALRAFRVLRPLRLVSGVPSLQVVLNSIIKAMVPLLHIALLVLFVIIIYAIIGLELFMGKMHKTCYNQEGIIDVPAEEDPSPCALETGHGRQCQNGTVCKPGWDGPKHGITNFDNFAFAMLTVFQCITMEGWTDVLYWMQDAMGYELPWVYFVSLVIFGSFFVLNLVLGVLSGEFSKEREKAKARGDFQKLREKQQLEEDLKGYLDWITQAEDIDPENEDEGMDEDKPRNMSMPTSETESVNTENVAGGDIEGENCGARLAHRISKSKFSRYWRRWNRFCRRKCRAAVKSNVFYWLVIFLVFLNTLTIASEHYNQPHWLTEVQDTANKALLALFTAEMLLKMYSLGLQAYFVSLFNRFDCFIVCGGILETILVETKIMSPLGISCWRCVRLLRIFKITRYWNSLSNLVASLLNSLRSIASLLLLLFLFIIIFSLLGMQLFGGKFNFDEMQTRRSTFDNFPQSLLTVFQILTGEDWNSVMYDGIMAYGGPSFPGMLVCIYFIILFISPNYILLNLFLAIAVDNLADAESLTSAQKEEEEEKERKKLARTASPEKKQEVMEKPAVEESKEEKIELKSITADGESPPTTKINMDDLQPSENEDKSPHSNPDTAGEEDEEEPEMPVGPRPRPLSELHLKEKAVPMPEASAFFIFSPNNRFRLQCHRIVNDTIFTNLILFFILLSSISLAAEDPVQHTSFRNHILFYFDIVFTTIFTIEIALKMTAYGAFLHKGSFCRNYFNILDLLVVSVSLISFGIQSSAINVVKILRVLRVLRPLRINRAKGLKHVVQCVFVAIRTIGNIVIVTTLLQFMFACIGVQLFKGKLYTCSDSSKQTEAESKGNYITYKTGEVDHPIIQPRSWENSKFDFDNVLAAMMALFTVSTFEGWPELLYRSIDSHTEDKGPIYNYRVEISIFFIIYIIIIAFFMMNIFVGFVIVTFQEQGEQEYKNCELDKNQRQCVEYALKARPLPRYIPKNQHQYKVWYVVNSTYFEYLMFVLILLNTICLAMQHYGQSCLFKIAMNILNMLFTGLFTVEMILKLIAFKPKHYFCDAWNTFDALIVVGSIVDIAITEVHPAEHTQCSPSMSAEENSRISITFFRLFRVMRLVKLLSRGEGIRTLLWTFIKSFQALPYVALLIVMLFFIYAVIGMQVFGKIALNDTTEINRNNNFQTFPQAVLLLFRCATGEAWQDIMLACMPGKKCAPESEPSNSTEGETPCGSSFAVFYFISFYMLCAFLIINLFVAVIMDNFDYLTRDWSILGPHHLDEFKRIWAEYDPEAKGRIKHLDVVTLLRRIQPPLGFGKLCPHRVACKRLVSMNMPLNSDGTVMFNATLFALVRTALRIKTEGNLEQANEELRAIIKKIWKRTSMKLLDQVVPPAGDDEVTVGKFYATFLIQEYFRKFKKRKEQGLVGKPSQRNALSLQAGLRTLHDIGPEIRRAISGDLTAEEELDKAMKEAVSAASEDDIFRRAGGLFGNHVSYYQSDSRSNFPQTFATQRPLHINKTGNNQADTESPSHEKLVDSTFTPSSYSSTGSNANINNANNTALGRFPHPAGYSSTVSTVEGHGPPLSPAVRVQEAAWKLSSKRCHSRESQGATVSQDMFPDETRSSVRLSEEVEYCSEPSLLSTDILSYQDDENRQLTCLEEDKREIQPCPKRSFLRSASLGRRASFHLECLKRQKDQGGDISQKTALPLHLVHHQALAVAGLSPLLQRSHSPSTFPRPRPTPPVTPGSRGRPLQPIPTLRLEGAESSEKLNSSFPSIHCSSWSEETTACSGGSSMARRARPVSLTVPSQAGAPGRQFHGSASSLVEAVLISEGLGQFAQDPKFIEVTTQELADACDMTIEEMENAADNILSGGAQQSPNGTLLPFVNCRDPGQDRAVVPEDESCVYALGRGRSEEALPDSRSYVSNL

`CC1=C(/C=C/C(C)=C/C=C/C(C)=C/CO)C(C)(C)CCC1` [RETINOL]: the AC50 in [1], in [2], in experiment [3], in experiment [4], in experiment [5] and in experiment [6] was > 10 µM throughout. Moreover, the half-maximal activity concentration (AC50) in experiment [7] was > 30 µM; in experiment [8], > 30 µM; in experiment [9] it was > 30 µM; in experiment [10] it was > 30 µM; in experiment [11], > 10 µM; in experiment [12], > 10 µM.

As for `CCCN(CCC)S(=O)(=O)c1ccc(C(=O)O)cc1` [PROBENECID], the AC50 in experiment [1], in experiment [2], in experiment [3], in [4], in experiment [5] and in experiment [6] was > 10 µM throughout. The AC50 in experiment [7] was > 30 µM; in experiment [8], > 30 µM; in experiment [9], > 30 µM; in experiment [10] it was > 10 µM; in experiment [11], > 10 µM; in experiment [12], > 10 µM.

As for `CCc1nc(N)nc(N)c1-c1ccc(Cl)cc1` [PYRIMETHAMINE], the concentration at half-maximal activity (AC50) in experiment [1] is > 10 µM; in experiment [2] it was > 10 µM; in experiment [3], > 10 µM; in experiment [4] it was > 10 µM; in [5], > 10 µM; in experiment [6] it was 11.3 µM. The AC50 in [7] was > 30 µM; in experiment [8], > 30 µM; in [9] it was 12 µM; in experiment [10] it was > 10 µM; in experiment [11] it was > 10 µM; in experiment [12], > 30 µM.

In the case of `NS(=O)(=O)c1cc2c(cc1Cl)N=C(CSCc1ccccc1)NS2(=O)=O` [BENZTHIAZIDE], the AC50 in experiment [1], in experiment [2], in experiment [3], in [4], in [5] and in [6] was > 10 µM throughout. For the same compound, the AC50 was > 30 µM in experiment [7]; > 30 µM in experiment [8]; > 30 µM in experiment [9]; > 30 µM in [10]; > 10 µM in [11]; > 10 µM in experiment [12].

Turning to `CC/C=C\C/C=C\C/C=C\C/C=C\C/C=C\CCCC(=O)OCC` [ICOSAPENT ETHYL], the AC50 in [1], in [2], in experiment [3], in experiment [4], in experiment [5] and in experiment [6] was > 30 µM in each case. Also, the AC50 in experiment [7] was > 30 µM; in experiment [8], > 30 µM; in [9], 12 µM; in [10], 3.5 µM; in experiment [11], 2.4 µM; in experiment [12], > 30 µM.

As for `O=C(c1cc(Cc2n[nH]c(=O)c3ccccc23)ccc1F)N1CCN(C(=O)C2CC2)CC1` [OLAPARIB], the AC50 is > 30 µM in [1]; > 10 µM in experiment [2]; > 10 µM in experiment [3]; > 10 µM in [4]; > 10 µM in experiment [5]; > 10 µM in experiment [6]. Further, the AC50 in [7], in experiment [8], in experiment [9], in experiment [10], in experiment [11] and in experiment [12] was > 30 µM in each case.

Take `CC(C)N(CCCCOCC(=O)O)c1cnc(-c2ccccc2)c(-c2ccccc2)n1`: the AC50 in experiment [1], in experiment [2], in experiment [3], in experiment [4], in experiment [5] and in [6] was > 30 µM each time. For the same compound, the AC50 was > 30 µM in experiment [7]; > 30 µM in [8]; 14.3 µM in [9]; > 30 µM in experiment [10]; > 30 µM in experiment [11]; > 30 µM in experiment [12].
